Measured values taken from US20070212331A1, “Methods and compositions for selectively killing cells” (priority 2006, published 2007).

Key:
RAW (macrophage) cells = experiment: Zinc-induced death of RAW (macrophage) cells; assay type: cell-based
Experimental: Exemplary cell types were treated in vitro with varying amounts of zinc (zinc chloride or zinc sulfate), in the presence or absence of the zinc ionophore pyrithione.

[1] = test system: N18TG2 (neuroblastoma) cells; experiment: Zinc-induced death of N18TG2 (neuroblastoma) cells; assay type: cell-based; conditions: 24 h incubation
Experimental: Exemplary cell types were treated in vitro with varying amounts of zinc (zinc chloride or zinc sulfate), in the presence or absence of the zinc ionophore pyrithione. […] Cell death involves both apoptosis and necrosis as determined by morphological observation.

PC12 cells = experiment: Zinc-induced cell death of PC12 cells; assay type: cell-based; parameters: cell lysis (indicative of necrosis) of PC12 cells: dose or concentration left out as unconfirmed
ERK = ERK activation (pERK) in PC12 cells; assay type: cell-based
[2] = test system: IIC9 cells (embryonic fibroblasts); experiment: IIC9 cell death by trypan blue uptake; assay type: cell-based; conditions: for cell death: 6 h (FIG. 1A)
ERK1/2 = ERK1/2 activation in IIC9 cells, Western blot with anti-pERK antibody; assay type: cell-based; parameters: time until ERK activation is detected after zinc addition / time ERK activation remains elevated: dose or concentration left out as unconfirmed; conditions: IIC9 cells
Experimental: (§1) Assays: ERK1/2 activation was determined by harvesting cells directly in boiling SDS-PAGE sample buffer and probing corresponding Western Blots with anti-pERK antibody (Cell Signaling). Blots were stripped and reprobed for total ERK (Cell Signaling). Ras activation was determined using the Raf-RBD assay (21,24). Identification of the specific Ras isoform activated was determined by probing the western blot with isoform-specific antibody (Upstate Biotechnology). Transfection of IIC9 cells was carried out using Novafector. Transfection efficiency of these cells is approximately 90%. The constructs for expression of dn-Ras and Bcl-Xl were kindly provided by Dr. J. Corbett and Dr. Chinnaduri (SLU).

Ras = Ras activation in IIC9 cells, Raf-RBD pull-down assay; assay type: cell-based; conditions: IIC9 cells
Experimental: as §1
Because Ras is a common upstream activator of ERK1/2 (36), we reasoned that zinc may induce the phosphorylation of ERK1/2 via Ras. This was examined by incubating IIC9 cells with 100 uM zinc and assessing Ras activation by RBD pull-down of GTP-Ras followed by Western blot analysis with a pan-Ras antibody. […] The critical role of Ras in mediating the effects of zinc was confirmed by examining the effect of over-expression of dnRas. […] Consistent with Ras as the upstream activator of the cytotoxic effect of zinc on IIC9, expression of dn H-Ras also attenuates zinc-mediated cell death (FIG. 5B).

[3] = test system: PC3 cells (prostate cancer cell line); experiment: Killing of PC3 cells by zinc and zinc-containing liposomes; assay type: cell-based; conditions: PC3 cells in culture (FIG. 6)
Experimental: These cells express high levels of the transferrin receptor and can be targeted by covalently attaching transferrin to the formed liposomes.
We next tested the ability of these liposomes to kill PC3 cells in culture (FIG. 6).
Non-prophetically, zinc containing liposomes were prepared by injecting ethanolic solutions of lipids into 10 mM Hepes buffer pH 6 containing 2.5 M ZnCl2. To make the ethanolic lipid solution, lipids initially dissolved in chloroform were dried by passing gaseous nitrogen over the solution. The dried lipids were dissolved in ethanol at a concentration of […] of phospholipids per mL of alcohol. The alcoholic lipid solution containing dioleoyl phosphatidyly choline, 1,2 dioleoyl phosphatidyly ethanolamine, 1,2 dioleolyl phosphatidyletanolamine-N-4-(p-maleimido-phenyl)butyramide) and cholesterol in a ratio of 7:2:0.05:1 was slowly (0.5 ml/min) injected through a Hamilton syringe into 3 mL of a magnetically stirred Hepes buffer, containing 2.5 mM ZnCl2 The final concentration of ethanol was between 2.5-7.5%. During injection of the lipids, the solution was constantly stirred by a standard magnetic stirrer. To ensure that the temperature of the liposome solution was well above the phase transition of the lipids, the temperature was kept at […]. […]

[4] = test system: IIC9 cells (embryonic fibroblasts); experiment: IIC9 cell morphology, microscopic examination; assay type: cell-based
Experimental: FIG. 1 depicts zinc-induced cell death in a time and dose dependent manner. (A) IIC9 cells (embryonic fibroblasts) were serum starved for 2 days and treated with the indicated concentrations of zinc for the indicated time periods. Cell death was monitored by trypan blue exclusion as described in the Materials and Methods. (B-D) Zinc-induced cell death is accompanied by morphological changes associated with apoptosis and necrosis. Shown are cells that were incubated with either 50 μM (C) or 200 μM (D) zinc for 6 hours. Control cells (B) were untreated. Cells were examined microscopically for changes in cell shape and size. […] Cell debris, indicative of cell lysis, was evident.
Cells and Incubation Conditions: IIC9 cells were grown in DMEM containing 10% FCS, P/S. Cells were plated in 12-well plates and grown to approximately 70% confluency. At that time, cells were serum arrested by changing the medium to DMEM (low glucose) without FCS. After 48 hours, cells were treated with zinc as described in the text. Cell death was quantified by trypan blue uptake. Cells were incubated with trypan blue (0.04%) for 5 min. Cells were examined microscopically and the number of blue cells and total cells were counted. Four fields were examined for each condition, with a minimum of 100 cells/field. To examine the effects of selective inhibitors, cells were preincubated with the indicated compound for 30 min. prior to zinc treatment.

[5] = test system: CD4+ CD8+ alpha beta TCR10CD3(10) thymocytes; conditions: 80-200 μM zinc; cited from earlier work

In the case of `[Cl-].[Cl-].[Zn+2]` [zinc], the “% cell death” value (RAW (macrophage) cells; 25 μM zinc, 0.0 hours of incubation) is reported as 0.0%, the “% cell death” value (RAW (macrophage) cells; 25 μM zinc, 1.0 hours of incubation) is reported as 0.0% and the “% cell death” value (RAW (macrophage) cells; 25 μM zinc, 3.0 hours of incubation) is reported as 0.0%. For the same compound, the “% cell death” value (RAW (macrophage) cells; 25 μM zinc, 5.0 hours of incubation) was 0.0%, the “% cell death” value (RAW (macrophage) cells; 50 μM zinc, 5.0 hours of incubation) was 0.0% and the “% cell death” value (RAW (macrophage) cells; 50 μM zinc, 18.0 hours of incubation) was 20.0%. For the same compound, the “% cell death” value (RAW (macrophage) cells; 100 μM zinc, 18.0 hours of incubation) was 100.0%, the “% death” value ([1]; 25 μM zinc) was 19% and the “% death” value ([1]; 50 μM zinc) was 75%. For the same compound, the “% death” value ([1]; 75 μM zinc) was 84%, the “% death” value ([1]; 150 μM zinc) was 90% and the “cell lysis (indicative of necrosis) of PC12 cells” value (PC12 cells; higher zinc concentrations or longer time periods) was “significant cell lysis”. The “cell death of PC12 cells” value (PC12 cells; undifferentiated or differentiated PC12 cells, in vitro) was “time and dose-dependent cell death”, the “time until pERK could be detected” value (ERK; PC12 cells, after zinc treatment) was “within five minutes” and the “time pERK remained at that level” value (ERK; PC12 cells, longest time period examined) was “at least five hours”. The ERK activation (ERK; zinc treatment of PC12 cells) was “induced ERK activation”, the “death of the population” value ([2]; 50 μM zinc, 6-h incubation, experiment of FIG. 2A) was “approximately 25%” and the cell death ([2]; 50 μM zinc) was about 15%. The cell death ([2]; 100 μM zinc) was about 25%, the cell death ([2]; 200 μM zinc) was “approximately 45%” and the “extracellular zinc concentration necessary to induce the death pathway” value ([2]; IIC9 cells, in the absence of pyrithione) was at least 50 µM. The “cell death of IIC9 cells” value ([2]; addition of zinc) was “time- and concentration-dependent”, the “cell death during the first few hours” value ([2]; zinc concentrations as high as 200 μM, first few hours) was “Little or no death” and the “induction of pERK” value (ERK1/2; western blotting with pERK antibody (FIG. 2E)) was “does induce pERK”. For the same compound, the “time until ERK activation is detected after zinc addition” value (ERK1/2; zinc) was at most 5 min, the “time ERK activation remains elevated” value (ERK1/2; zinc, longest time period examined) was “at least 6 h” and the “activation of Ras” value (Ras; 100 uM zinc, pan-Ras antibody (FIG. 5A)) was about 5 fold. For the same compound, the Ras isoform activated (Ras; isoform-specific antibody) was “selective activation of H-Ras”, the “cell death of PC3 cells” value [3] was “underwent cell death” and the cell morphology ([4]; 50 μM zinc, 6 hours (FIG. 1C)) was “rounded and displayed differing degrees of cell shrinkage”. For the same compound, the “cell population displaying a rounded morphology” value ([4]; 50 μM zinc, first few hours of incubation) was “approximately 50%”, the cell morphology ([4]; 200 μM zinc, 6 hours (FIG. 1D)) was “more varied morphology” and the cell morphology ([4]; 100 or 200 uM zinc, first few hours) was “all cells were rounded and underwent differing degrees of cell shrinkage”. The “thymocytes in which apoptosis was induced” value [5] was 40%.
